Measurements taken from PMC7052193, “Nanobody-enabled monitoring of kappa opioid receptor states” (Nature Communications, 2020).
Values joined by “and” are separate entries in the source; they are usually repeats but may differ in a detail not shown here. Equal values may be shown once.

What was measured:
[1] = biological target: T1, KOR (Homo sapiens, UniProt P41145); test: Competition binding with 3H-JDTic in the absence or presence of 5 µM Nb6 or Nb39
[2] = biological target: T1, KOR; test: Real-time BRET kinetics of KOR–Nb6; type: cell-based; settings: for BRET, KOR + Nb6: SalA / Buffer
[3] = biological target: T1, KOR; test: Real-time BRET kinetics of KOR–Nb39; type: cell-based; settings: SalA / Buffer
[4] = biological target: T2, human KOR containing C-terminal Renilla luciferase (RLuc8) (human, UniProt P41145); test: FRET or BRET; kinetic BRET in HEK 293T cells co-expressing KOR-Rluc and Nb6-mVenus or Nb39-mVenus; 10 µM Sal A, then 10 µM JDTic added at the indicated times; t1/2 from one phase exponential decay; settings: partners not purified
T2 construct: kappa opioid receptor, human, wild type; also called KOR-Rluc; kappa opioid receptor; source: HEK 293T, co-transfected, in live cells; not shown: RLuc8, C-terminal, kept

[5] = biological target: T2, human KOR containing C-terminal Renilla …; test: FRET or BRET; live HEK 293T cells co-transfected with receptor-RLuc and nanobody-mVenus (1:3); net BRET ratio without agonist (no drug, or with the antagonist JDTic); 20 mM HEPES, 1X HBSS, pH 7.4; settings: partners not purified

O=C(N[C@@H]1C=CC2[C@H]3Cc4ccc(O)c5c4[C@@]2(CCN3CC2CC2)[C@H]1O5)c1cccc(I)c1 (some centres unmarked) [MP1104]
effect of Nb6 on binding affinity [1]: only slightly affected

COC(=O)[C@@H]1C[C@H](OC(C)=O)C(=O)[C@H]2[C@@]1(C)CC[C@H]1C(=O)O[C@H](c3ccoc3)C[C@]21C [Sal A, Salvinorin A]
t1/2 of decrease in Nb6-KOR BRET ([2]; 10 µM Sal A added): 0.833 ± 0.167 min | BRET, KOR + Nb6 ([2]; time 5 min): 1.409 and 1.4035 and 1.421 and 1.389 | BRET, KOR + Nb6 ([2]; time 6 min): 1.298 and 1.281 and 1.268 and 1.228 | BRET, KOR + Nb6 ([2]; time 7 min): 1.173 and 1.165 and 1.166 and 1.137 | BRET, KOR + Nb6 ([2]; time 8 min): 1.122 and 1.113 and 1.12 and 1.093 | BRET, KOR + Nb6 ([2]; time 9 min): 1.088 and 1.0779 and 1.094 and 1.0747 | BRET, KOR + Nb6 ([2]; time 10 min): 1.082 and 1.078 and 1.0874 and 1.065 | BRET, KOR + Nb6 ([2]; time 11 min): 1.074 and 1.07 and 1.083 and 1.058 | BRET, KOR + Nb6 ([2]; time 12 min): 1.074 and 1.063 and 1.076 and 1.058 | BRET, KOR + Nb6 ([2]; time 13 min): 1.075 and 1.061 and 1.082 and 1.064 | BRET, KOR + Nb6 ([2]; time 14 min): 1.069 and 1.063 and 1.08 and 1.062 | BRET, KOR + Nb6 ([2]; time 15 min): 1.083 and 1.067 and 1.08 and 1.061 | BRET, KOR + Nb6 ([2]; time 16 min): 1.077 and 1.067 and 1.078 and 1.056 | BRET, KOR + Nb6 ([2]; time 17 min): 1.076 and 1.07 and 1.085 and 1.064 | BRET, KOR + Nb6 ([2]; time 18 min): 1.081 and 1.07 and 1.082 and 1.068 | BRET, KOR + Nb6 ([2]; time 19 min): 1.086 and 1.077 and 1.091 and 1.066 | BRET, KOR + Nb6 ([2]; time 20 min): 1.081 and 1.073 and 1.083 and 1.0658 | BRET, KOR + Nb6 ([2]; time 21 min): 1.087 and 1.079 and 1.095 and 1.076 | BRET, KOR + Nb6 ([2]; time 22 min): 1.074 (2×) and 1.079 and 1.0714 | BRET, KOR + Nb6 ([2]; time 23 min): 1.088 and 1.082 and 1.074 and 1.0724 | BRET, KOR + Nb6 ([2]; time 24 min): 1.091 and 1.078 and 1.081 and 1.076 | BRET, KOR + Nb6 ([2]; time 25 min): 1.086 and 1.081 and 1.078 and 1.0719 | BRET, KOR + Nb6 ([2]; time 26 min): 1.084 and 1.082 and 1.088 and 1.07 | BRET, KOR + Nb6 ([2]; time 27 min): 1.079 and 1.0834 and 1.085 and 1.083 | BRET, KOR + Nb6 ([2]; time 28 min): 1.084 and 1.076 and 1.086 (2×) | BRET, KOR + Nb6 ([2]; time 29 min): 1.0858 and 1.081 (2×) and 1.075 | BRET, KOR + Nb39 ([3]; time 5 min): 0.0262 and 0.02211 and 0.02102 and 0.02289 | BRET, KOR + Nb39 ([3]; time 6 min): 0.3036 and 0.3141 and 0.3188 and 0.3115 | BRET, KOR + Nb39 ([3]; time 7 min): 0.3004 and 0.3137 and 0.3136 and 0.3142 | BRET, KOR + Nb39 ([3]; time 8 min): 0.2978 and 0.3081 and 0.3108 and 0.3153 | BRET, KOR + Nb39 ([3]; time 9 min): 0.2922 and 0.311 and 0.3085 and 0.3127 | BRET, KOR + Nb39 ([3]; time 10 min): 0.2996 and 0.3174 and 0.3198 | BRET, KOR + Nb39 ([3]; time 11 min): 0.2967 and 0.3155 and 0.3205 | BRET, KOR + Nb39 ([3]; time 12 min): 0.298 and 0.3156 and 0.3148 and 0.3226 | BRET, KOR + Nb39 ([3]; time 13 min): 0.2971 and 0.3177 and 0.3205 and 0.3168 | BRET, KOR + Nb39 ([3]; time 14 min): 0.2971 and 0.3134 and 0.3132 and 0.3235 | BRET, KOR + Nb39 ([3]; time 15 min): 0.2986 and 0.3191 and 0.3238 and 0.3265 | BRET, KOR + Nb39 ([3]; time 16 min): 0.2964 and 0.3182 and 0.3184 and 0.324 | BRET, KOR + Nb39 ([3]; time 17 min): 0.3018 and 0.3186 and 0.3227 and 0.3317 | BRET, KOR + Nb39 ([3]; time 18 min): 0.3003 and 0.3158 and 0.3185 and 0.326 | BRET, KOR + Nb39 ([3]; time 19 min): 0.3043 and 0.3186 and 0.3228 and 0.323 | BRET, KOR + Nb39 ([3]; time 20 min): 0.2961 and 0.3231 and 0.3183 and 0.3325 | BRET, KOR + Nb39 ([3]; time 21 min): 0.3008 and 0.3186 and 0.3235 | BRET, KOR + Nb39 ([3]; time 22 min): 0.3025 and 0.3173 and 0.3147 and 0.3318 | BRET, KOR + Nb39 ([3]; time 23 min): 0.2987 and 0.3226 and 0.3296 | BRET, KOR + Nb39 ([3]; time 24 min): 0.2996 and 0.3206 and 0.3159 and 0.3334 | BRET, KOR + Nb39 ([3]; time 25 min): 0.3041 and 0.3179 and 0.3117 and 0.3236 | BRET, KOR + Nb39 ([3]; time 26 min): 0.2994 and 0.3089 and 0.3198 and 0.3347 | BRET, KOR + Nb39 ([3]; time 27 min): 0.3042 and 0.3155 and 0.3211 and 0.3323 | BRET, KOR + Nb39 ([3]; time 28 min): 0.2989 and 0.303 and 0.3151 and 0.3345 | BRET, KOR + Nb39 ([3]; time 29 min): 0.2966 and 0.3193 and 0.305 and 0.3267 | BRET, KOR + Nb39 ([3]; time 30 min): 0.2958 and 0.3183 and 0.3167 and 0.3297

B1: Nb39-mVenus (VHH)
VHH: QVQLVESGGGLVRPGGSLRLSCVDSERTSYPMGWFRRAPGKEREFVASITWSGIDPTYADSVADRFTTSRDVANNTLYLQMNSLKHEDTAVYYCAARAPVGQSSSPYDYDYWGQGTQVTVSS
notes: nanobody chain of the cited KOR-MP1104-Nb39 structure PDB 6B73; A purified Nb39 from E. coli WK6 (no mVenus) was used at 5 µM in the radioligand assays; the functional row on it uses this id; also called positive allosteric nanobody; active-state associated nanobody; source: HEK 293T, co-transfected, in live cells; not shown: mVenus, C-terminal, kept
t1/2 of the reversal of the KOR-Nb39 association by JDTic [4]: 1.78 ± 0.25 min

B2: Nb6-mVenus with R102 mutated (VHH)
VHH: QVQLQESGGGLVQAGESLRLSCAASGTIFRLYDMGWYRRVSGNQRELVASITSGGSTKYGDSVKGRFTISRDNAKNTVYLQMSSLKPEDTAVYYCNAEYATGIWEELLDGWGQGTQVTVSS
notes: as the chain of m4 (PDB 6VI4) with R102 mutated; also called Nb6 R102 mutant; source: HEK 293T, co-transfected, in live cells; not shown: mVenus, C-terminal, kept
binding result [5]: no binding

B3: Nb6-mVenus with W106 mutated (VHH)
VHH: QVQLQESGGGLVQAGESLRLSCAASGTIFRLYDMGWYRRVSGNQRELVASITSGGSTKYGDSVKGRFTISRDNAKNTVYLQMSSLKPEDTAVYYCNAEYRTGIAEELLDGWGQGTQVTVSS
notes: as the chain of m4 (PDB 6VI4) with W106 mutated; also called Nb6 W106 mutant; source: HEK 293T, co-transfected, in live cells; not shown: mVenus, C-terminal, kept
binding result [5]: no binding
